# Assay results from patent US8324412B2, “Method for preparing 4-[17β-methoxy-17α-methoxymethyl-3-oxoestra-4,9-dien-11β-yl]benzaldehyde (E)-oxime (asoprisnil)” (Bayer Pharma AG, priority 2006, dated 2012).
# Experiment: Stability of the prior-art amorphous solid form in the solid pharmaceutical form under ICH accelerated conditions
# Type: physicochemical
# Conditions: amorphous solid form described in EP 129 26 07, ICH accelerated conditions (40° C., 75% r.h.)
# Description: According to the details disclosed in the literature, it is not possible to prepare the individual intermediates on the manufacturing scale in such a way that the medicinally active asoprisnil and its precursors can be obtained therefrom reliably and reproducibly and having the analytical parameters required by the authorities or by the legislation pursuant to ICH Q6A Guidance, 2000, such as byproduct profile, content of active ingredient, chemical and physical purity, and stability. […] The suitability of the asoprisnil obtainable by this method for a solid pharmaceutical form is accordingly low.
smiles,measurement,value
"COC[C@]1(OC)CC[C@H]2[C@@H]3CCC4=CC(=O)CCC4=C3[C@@H](c3ccc(/C=N/O)cc3)C[C@@]21C [asoprisnil, 4-[17β-methoxy-17α-methoxymethyl-3-oxoestra-4,9-dien-11β-yl]benzaldehyde (E)-oxime]",Physical stability in the solid pharmaceutical form (recrystallization),partial to complete recrystallization
